Reference: patent US8952128B2, “Somatostatin-dopamine chimeric analogs” (priority 2012, dated 2015)
Like-named read-outs stand apart in the source and are kept apart here. Numbered stars: 1 amine (or outer) side, 2 acyl side, 3 side chain; on linkers, the order of the positions; unused ones are H or OH. Bridge positions count the residues as written; N and C are the ends. Square brackets hold non-standard residues; d marks the D form. Peptide text beside a SMILES is read from it. X1 = CN1C[C@H](CSCCN(CCSC[C@@H]2C[C@@H]3c4cccc5[nH]cc(c45)C[C@H]3N(C)C2)[C@H](CCCCN[*:2])C(=O)[*:1])C[C@@H]2c3cccc4[nH]cc(c34)C[C@H]21

Assays:
hSSTR2 [1] = biological target: T1, hSSTR2 (Homo sapiens (Human), UniProt P30874); assay: Intracellular calcium mobilization assay (FLIPR Calcium 4), hSSTR2; type: cell-based; conditions: for Emax: read-out: hSSTR2 % Emax ± SEM;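 for all read-outs here: agonist activity read as intracellular calcium rise in cells expressing human SSTR2, loaded with a calcium-sensitive dye for 60 min at 37 °C, measured by FLIPR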
Procedure: (§5) The ability of select compounds according to the present invention to activate hSSTR2 and hDRD2 was determined by the intracellular calcium mobilization assay using FLIPR Calcium 4 assay kit (Molecular Devices).
(§6) Cells expressing hSSTR2 or hDRD2 were plated in 384-well microplates in tissue culture media and incubated for 16-24 hours at 37° C. in a humidified atmosphere with 5% CO2. Medium was replaced by loading buffer containing Hank's buffered saline, 20 mM HEPES, 2.5 mM probenecid and Calcium 4 dye, and the plates were incubated at 37° C. for 60 minutes.

hDRD2 [2] = biological target: T2, hDRD2 (Homo sapiens (Human), UniProt P14416); assay: cell-based
Procedure: as §5, §6

[3] = system: pituitary tumor cells of acromegalic patients presenting with macroadenoma; assay: Human pituitary adenoma cell growth hormone release assay; type: cell-based; conditions: 18 hours incubation, FIG. 5
Procedure: FIG. 1 is a graph showing the Growth hormone suppressing activity of Compound 4 (see Table I hereinbelow for its chemical name and its corresponding structural representation) on pituitary tumor cells of acromegalic patients presenting with macroadenoma. Various concentrations of Compound 4 were added to the medium and the cells were incubated for 18 hours before measurement of Growth hormone levels in the medium using the AlphaLISA Growth Hormone Immunoassay Research kit (PerkinElmer).
Various concentrations of Compounds 4 and 5 were added to the medium and the cells were incubated for 18 hours before measurement of Growth hormone levels in the medium using the AlphaLISA Growth Hormone Immunoassay Research kit (PerkinElmer).
Acromegalic patients presenting with macroadenoma underwent transsphenoidal surgery and a portion of each tumor obtained at surgery was dissociated by enzymatic and mechanical methods. The cells were cultured in DMEM medium supplemented with 10% FBS and antibiotics for 3 days. The cells were then plated in multi-well tissue culture dishes coated with extracellular matrix from bovine endothelial corneal cells at a density of 3-5×10^4 cells/well in DMEM supplemented with 10% FBS and antibiotics. After 2-3 days of culture, the medium was changed to DMEM supplemented with 1% FBS, antibiotics and 1% ITS (insulin, transferrin and selenium).

hSSTR4 = hSSTR4 (Homo sapiens (Human), UniProt P31391); assay: Somatostatin receptor radioligand binding assay, hSSTR4; conditions: CHO-K1 membranes, [125I-Tyr11]-SRIF-14; read-out: hSSTR4 Ki (nM) ± SEM
Procedure: (§1) The affinities of a test compound for the human somatostatin receptors were determined by radioligand binding assays in CHO-K1 cells stably transfected with each of the human somatostatin receptor subtypes, hSSTR1-5. […] Clonal cell lines stably expressing each of the somatostatin receptors were obtained by transfection into CHO-K1 cells (ATCC) and subsequently selected with culture media containing 0.8 mg/mL of G418 (Life Technologies).
(§2) Membranes for in vitro receptor binding assays were obtained by the following procedures. CHO-K1 cells expressing one of the somatostatin receptors were homogenized in ice-cold buffer with 10 mM Tris-HCl, 5 mM EDTA, 3 mM EGTA, 1 mM phenylmethylsuphonyl fluoride, pH 7.6, using Polytron PT10-35GT (Kinematica) at 18,000 rpm for 30 seconds and centrifuged at 500×g for 10 minutes. The supernatant containing the plasma membranes was centrifuged at 100,000×g for 30 minutes and the pellet was resuspended in buffer containing 20 mM glycine-glycine, 1 mM MgCl2, 250 mM sucrose, pH 7.2, for storage at −80° C.
(§3) For the hSSTR3 and 4 assays, membranes and various concentrations of test compounds were incubated in 96-well plates for 60 minutes at 25° C. with 0.05 nM [^125I-Tyr^11]-SRIF-14 (PerkinElmer Life Science) in 50 mM HEPES, 0.2% BSA, 5 mM MgCl2, 200 KIU/mL trasylol, 0.02 mg/mL bacitracin, and 0.02 mg/mL phenylmethylsuphonyl fluoride, pH 7.5.
(§4) The incubations were terminated by rapid filtration through GF/C glass microfiber filter plates (pre-wet with 0.3% polyethyleneimine and 0.1% BSA) using a 96-well cell harvester (Brandel). Plates were washed six times with 1 mL/well aliquots of ice-cold buffer containing 50 mM Tris buffer, pH 7.7. Specific binding was defined as the total radioligand bound minus the bound in the presence of 1000 nM SRIF-14.

hSSTR3 = hSSTR3 (Homo sapiens (Human), UniProt P32745); assay: Somatostatin receptor radioligand binding assay, hSSTR3; conditions: CHO-K1 membranes, [125I-Tyr11]-SRIF-14; read-out: hSSTR3 Ki (nM) ± SEM
Procedure: as §1, §2, §3, §4

hSSTR2 [4] = biological target: T1, hSSTR2; assay: Somatostatin receptor radioligand binding assay, hSSTR2; conditions: CHO-K1 membranes, [125I-Tyr]-seglitide; read-out: hSSTR2 Ki (nM) ± SEM
Procedure: The affinities of a test compound for the human somatostatin receptors were determined by radioligand binding assays in CHO-K1 cells stably transfected with each of the human somatostatin receptor subtypes, hSSTR1-5. The cDNA coding sequences of hSSTR1 (GenBank accession No. NM—001049.1), hSSTR2 (GenBank accession No. XM—012697.1), hSSTR3 (GenBank accession No. XM—009963.1), hSSTR4 (GenBank accession No. NM—001052.1), and hSSTR5 (GenBank accession No. XM—012565.1) were subcloned into the mammalian expression vector pcDNA3.1 (Life Technologies). Clonal cell lines stably expressing each of the somatostatin receptors were obtained by transfection into CHO-K1 cells (ATCC) and subsequently selected with culture media containing 0.8 mg/mL of G418 (Life Technologies).
Membranes for in vitro receptor binding assays were obtained by the following procedures. […] The supernatant containing the plasma membranes was centrifuged at 100,000×g for 30 minutes and the pellet was resuspended in buffer containing 20 mM glycine-glycine, 1 mM MgCl2, 250 mM sucrose, pH 7.2, for storage at −80° C. […]

hDRD2 [5] = biological target: T2, hDRD2; type: binding; conditions: CHO-K1 membranes, [3H]-spiperone; read-out: hDRD2 Ki (nM) ± SEM

T1 sequence (P30874 whole entry): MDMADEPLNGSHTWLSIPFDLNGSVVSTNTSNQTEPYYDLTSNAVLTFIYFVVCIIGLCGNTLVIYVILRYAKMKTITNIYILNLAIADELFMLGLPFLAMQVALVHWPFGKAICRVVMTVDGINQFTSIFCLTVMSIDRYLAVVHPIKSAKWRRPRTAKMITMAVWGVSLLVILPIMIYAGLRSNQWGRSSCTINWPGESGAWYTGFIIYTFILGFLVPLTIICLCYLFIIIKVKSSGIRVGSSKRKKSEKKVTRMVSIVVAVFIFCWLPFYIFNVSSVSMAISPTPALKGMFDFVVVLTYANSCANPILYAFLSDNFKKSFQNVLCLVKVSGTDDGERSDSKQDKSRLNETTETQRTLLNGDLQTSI
hSSTR3, sequence (P32745 whole entry): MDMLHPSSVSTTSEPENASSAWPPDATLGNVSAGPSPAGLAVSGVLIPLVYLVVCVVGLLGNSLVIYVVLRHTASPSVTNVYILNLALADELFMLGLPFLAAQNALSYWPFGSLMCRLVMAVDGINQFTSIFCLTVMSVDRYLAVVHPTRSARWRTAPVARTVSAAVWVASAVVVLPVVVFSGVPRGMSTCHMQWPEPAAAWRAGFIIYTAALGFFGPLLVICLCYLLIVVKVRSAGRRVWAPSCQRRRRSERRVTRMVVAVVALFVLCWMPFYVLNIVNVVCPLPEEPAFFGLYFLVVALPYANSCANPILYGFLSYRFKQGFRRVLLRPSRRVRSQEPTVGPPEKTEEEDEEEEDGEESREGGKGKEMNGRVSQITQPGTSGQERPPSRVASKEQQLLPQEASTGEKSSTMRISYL
hSSTR4, sequence (P31391 whole entry): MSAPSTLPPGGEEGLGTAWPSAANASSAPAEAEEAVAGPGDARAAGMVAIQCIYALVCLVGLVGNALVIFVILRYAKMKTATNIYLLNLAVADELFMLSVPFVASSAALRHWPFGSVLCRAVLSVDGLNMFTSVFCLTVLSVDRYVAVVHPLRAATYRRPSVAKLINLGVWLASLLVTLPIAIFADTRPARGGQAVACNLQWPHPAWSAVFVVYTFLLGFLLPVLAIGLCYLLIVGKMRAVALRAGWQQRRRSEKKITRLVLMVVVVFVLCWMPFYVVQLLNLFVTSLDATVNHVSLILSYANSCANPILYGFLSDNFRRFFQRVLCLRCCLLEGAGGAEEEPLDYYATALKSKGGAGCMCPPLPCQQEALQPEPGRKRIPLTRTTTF

SMILES	EC50 (hSSTR2 [1]) [nM]	improvement in EC50 and/or % Emax over Reference Compound B (hSSTR2 [1]; calcium mobilization)	Emax (hSSTR2 [1]) [%]	EC50 (hDRD2 [2]) [nM]	Growth hormone suppressing activity compared to parent somatostatin analogs [3]	also measured
C[C@@H](O)[C@@H]1NC(=O)[C@H](CCCCN)NC(=O)[C@@H](Cc2c[nH]c3ccccc23)NC(=O)[C@H](Cc2ccncc2)NC(=O)[C@H](Cc2ccccc2)NC(=O)[C@H](CCCNC(=N)N)NC(=O)[C@H](NC[C@H](Cc2ccc(O)cc2)NC(=O)CSC[C@@H]2C[C@@H]3c4cccc5[nH]cc(c45)C[C@H]3N(C)C2)CCCCNC(=O)[C@H](Cc2ccccc2)NC1=O [Compound 4, Dop1-Tyr-psi(CH2NH)-cyclo(DLys-Arg-Phe-4Pal-DTrp-Lys-Thr-Phe)]	7.6 ± 1.5	statistically significant improvement	100 ± 2.9	20.1 ± 2.6	enhanced Growth hormone suppressing activity	
C[C@@H](O)[C@@H]1NC(=O)[C@H](CCCCN)NC(=O)[C@@H](Cc2c[nH]c3ccccc23)NC(=O)[C@H](Cc2ccccc2)NC(=O)[C@H](Cc2ccccc2)NC(=O)[C@H](CCCNC(=N)N)NC(=O)[C@H](NC[C@H](Cc2ccc(O)cc2)NC(=O)CSC[C@@H]2C[C@@H]3c4cccc5[nH]cc(c45)C[C@H]3N(C)C2)CCCCNC(=O)[C@H](Cc2ccc(F)cc2)NC1=O [Compound 5, Dop1-Tyr-psi(CH2NH)-cyclo(DLys-Arg-Phe-Phe-DTrp-Lys-Thr-4FPhe)]	14.6 ± 1.9	statistically significant improvement	97 ± 3.6	30.1 ± 5.3	enhanced Growth hormone suppressing activity	
C[C@@H](O)[C@@H]1NC(=O)[C@H](CCCCN)NC(=O)[C@@H](Cc2c[nH]c3ccccc23)NC(=O)[C@H](Cc2ccncc2)NC(=O)[C@H](Cc2ccccc2)NC(=O)[C@H](CCCNC(=N)N)NC(=O)[C@H](NCC[S@@+]([O-])C[C@@H]2C[C@@H]3c4cccc5[nH]cc(c45)C[C@H]3N(C)C2)CCCCNC(=O)[C@H](Cc2ccc(O)cc2)NC1=O [Compound 12, Dop1[(S)SO]-psi(CH2NH)-cyclo(DLys-Arg-Phe-4Pal-DTrp-Lys-Thr-Tyr)]			90.9 ± 12.9			Ki (hSSTR4): 3.2 ± 0.7 nM; Ki (hSSTR3): 143 ± 65.2 nM
C[C@@H](O)[C@@H]1NC(=O)[C@H](CCCCN)NC(=O)[C@@H](Cc2c[nH]c3ccccc23)NC(=O)[C@H](Cc2cccnc2)NC(=O)[C@H](Cc2ccccc2)NC(=O)[C@H](CCCNC(=N)N)NC(=O)[C@H](NC[C@H](Cc2ccc(O)cc2)NC(=O)CSC[C@@H]2C[C@@H]3c4cccc5[nH]cc(c45)C[C@H]3N(C)C2)CCCCNC(=O)[C@H](Cc2ccccc2)NC1=O [Compound 38, Dop1-Tyr-psi(CH2NH)-cyclo(DLys-Arg-Phe-3Pal-DTrp-Lys-Thr-Phe)]				7.5 ± 0.1		EC50 (hSSTR2 [1]; calcium mobilization, read-out: hSSTR2 EC50 (nM) ± SEM): 24.9 ± 7.7 nM; Emax (hSSTR2 [1]; maximal effect in percentage of the maximal effect of SRIF-14): 83.5 ± 4.4%; Ki (hSSTR2 [4]): 0.76 ± 0.23 nM
C[C@@H](O)[C@@H]1NC(=O)[C@H](CCCCN)NC(=O)[C@@H](Cc2c[nH]c3ccccc23)NC(=O)[C@H](Cc2ccccc2)NC(=O)[C@H](Cc2ccccc2)NC(=O)[C@H](CCCNC(=N)N)NC(=O)[C@H](N(CCSC[C@@H]2C[C@@H]3c4cccc5[nH]cc(c45)C[C@H]3N(C)C2)CCSC[C@@H]2C[C@@H]3c4cccc5[nH]cc(c45)C[C@H]3N(C)C2)CCCCNC(=O)[C@H](Cc2ccccc2)NC1=O [Compound 40, bis[Dop1-psi(CH2N)]-cyclo(DLys-Arg-Phe-Phe-DTrp-Lys-Thr-Phe)] (RFF[dW]KTF; linker N-C via X1)			95 ± 6.1			Ki (hDRD2 [5]): 445 ± 143 nM
